Reference: patent US9090599B2, “Heteroarylmethyl amides” (Hoffman-La Roche Inc., priority 2010, dated 2015)
Where two headings read alike, the source gives them in different places.

How the values were obtained:
human CB1 receptor = target: T1, human CB1 receptor (Homo sapiens, UniProt P21554); assay: CB1 receptor affinity, [3H]-CP-55,940 displacement, HEK cell membranes; format: binding; conditions: read-out: CB1 receptor affinity [% inhibition @ 10 μM]
T1 construct: expressed in transfected cells; host or cells: human embryonic kidney (HEK) cells, Semliki Forest Virus system, membrane preparations
T1 sequence (P21554 whole entry): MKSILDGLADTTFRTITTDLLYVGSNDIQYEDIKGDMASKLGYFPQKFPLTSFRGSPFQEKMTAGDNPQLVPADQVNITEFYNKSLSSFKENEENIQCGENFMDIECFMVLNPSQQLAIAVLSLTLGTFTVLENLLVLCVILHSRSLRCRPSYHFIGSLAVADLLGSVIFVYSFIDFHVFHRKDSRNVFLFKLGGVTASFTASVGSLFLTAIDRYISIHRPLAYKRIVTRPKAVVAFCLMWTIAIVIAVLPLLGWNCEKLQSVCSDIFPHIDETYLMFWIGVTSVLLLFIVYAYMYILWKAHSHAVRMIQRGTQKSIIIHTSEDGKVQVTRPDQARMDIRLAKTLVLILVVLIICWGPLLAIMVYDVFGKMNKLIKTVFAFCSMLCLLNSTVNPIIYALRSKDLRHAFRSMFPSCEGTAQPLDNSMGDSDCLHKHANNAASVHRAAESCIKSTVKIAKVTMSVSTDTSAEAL
Method: (§1) The affinity of the compounds of the invention for cannabinoid receptors was determined using membrane preparations of human embryonic kidney (HEK) cells in which the human CB1 receptor is transiently transfected using a Semliki Forest Virus system in conjunction with [3H]-CP-55,940 as radioligand. After incubation of freshly prepared cell membrane preparation with the [^3H]-ligand, with or without addition of compounds of the invention, separation of bound and free ligand was performed by filtration over glass fiber filters. Radioactivity on the filter was measured by scintillation counting.
(§2) The ability of the compounds to displace the radioligand [^3H]-CP-55,940 was measured at a concentration of 10 μM and values provided as [% inhibition @ 10 μM] both for the CB 1 and CB2 receptor assay, The lower % inhibition is, the lower the likelihood of side effects based on CB1 or CB2 receptor inhibition is.

human CB2 receptor = target: T2, human CB2 receptor (Homo sapiens, UniProt P34972); assay: CB2 receptor affinity, [3H]-CP-55,940 displacement, HEK cell membranes; format: binding; conditions: 10 μM compound, radioligand [3H]-CP-55,940
T2 construct: expressed in transfected cells; host or cells: human embryonic kidney (HEK) cells, Semliki Forest Virus system, membrane preparations
T2 sequence (P34972 whole entry): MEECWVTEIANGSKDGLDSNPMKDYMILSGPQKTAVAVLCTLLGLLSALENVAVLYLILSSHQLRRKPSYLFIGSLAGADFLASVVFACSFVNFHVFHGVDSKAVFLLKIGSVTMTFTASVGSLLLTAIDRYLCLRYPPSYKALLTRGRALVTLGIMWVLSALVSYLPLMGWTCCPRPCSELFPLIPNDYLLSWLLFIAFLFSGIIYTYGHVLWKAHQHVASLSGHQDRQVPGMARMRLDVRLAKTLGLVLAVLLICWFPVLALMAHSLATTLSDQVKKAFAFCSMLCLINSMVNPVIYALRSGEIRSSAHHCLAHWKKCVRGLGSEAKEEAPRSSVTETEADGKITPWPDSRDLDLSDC
Method: as §1, with “cannabinoid CB2” for “cannabinoid”, “CB2” for “CB1”, “[^3H]-CP-55,940” for “[3H]-CP-55,940”
as §2

[1] = 10 μM compound, radioligand [3H]-CP-55,940

With `C[C@H](Oc1cnc(C(=O)NCc2nc(C(F)(F)F)no2)nc1-c1ccc(Cl)cc1)C(F)(F)F` [Example 35, (S)-4-(4-chlorophenyl)-N-((3-(trifluoromethyl)-1,2,4-oxadiazol-5-yl)methyl)-5-(1,1,1-trifluoropropan-2-yloxy)pyrimidine-2-carboxamide] the inhibition at 10 µM (human CB1 receptor; [1]) was 50% and the inhibition at 10 µM (human CB2 receptor) was 22%.

With `COc1cc(CNC(=O)c2cnc(OCC(F)(F)F)c(-c3ccc(Cl)c(F)c3)c2)on1` [Example 86, 5-(4-chloro-3-fluorophenyl)-N-((3-methoxyisoxazol-5-yl)methyl)-6-(2,2,2-trifluoroethoxy)nicotinamide] the inhibition at 10 µM (human CB1 receptor; [1]) was 37% and the inhibition at 10 µM (human CB2 receptor) was 9%.

In the case of `O=C(NCc1cc(C(F)(F)F)on1)c1cc(-c2ccc(Cl)cc2)c(OCC(F)(F)F)cn1` [Example 45, 4-(4-chlorophenyl)-5-(2,2,2-trifluoroethoxy)-N-((5-(trifluoromethyl)isoxazol-3-yl)methyl)picolinamide], the inhibition at 10 µM (human CB1 receptor) was 37% and the inhibition at 10 µM (human CB2 receptor) was -2%.

Molecule `O=C(NCc1cc(C(F)(F)F)on1)c1ccc(OCC2CC2)c(-c2ccc(Cl)cc2)n1` [Example 58, 6-(4-chloro-phenyl)-5-cyclopropylmethoxy-pyridine-2-carboxylic acid (5-trifluoromethyl-isoxazol-3-ylmethyl)-amide] has an inhibition at 10 µM (human CB1 receptor; [1]) of 42% and an inhibition at 10 µM (human CB2 receptor) of 19%.

In the case of `CC(C)c1nc(CNC(=O)c2cc(-c3ccc(Cl)cc3)c(OCC(F)(F)F)cn2)no1` [Example 39, 4-(4-chlorophenyl)-N-((5-isopropyl-1,2,4-oxadiazol-3-yl)methyl)-5-(2,2,2-trifluoroethoxy)picolinamide], the inhibition at 10 µM (human CB1 receptor; [1]) was 26% and the inhibition at 10 µM (human CB2 receptor) was 21%.

Molecule `Cc1ccc(-c2cc(C(=O)NCc3nc(C(F)(F)F)no3)ncc2OCC(F)(F)F)cc1C` [Example 78, 4-(3,4-dimethylphenyl)-5-(2,2,2-trifluoroethoxy)-N-((3-(trifluoromethyl)-1,2,4-oxadiazol-5-yl)methyl)picolinamide] has an inhibition at 10 µM (human CB1 receptor; [1]) of 17% and an inhibition at 10 µM (human CB2 receptor) of 5%.

Work on `CC(C)c1cc(CNC(=O)c2ccc(OCC(F)(F)F)c(-c3ccc(Cl)cc3)n2)no1` [Example 53, 6-(4-chloro-phenyl)-5-(2,2,2-trifluoro-ethoxy)-pyridine-2-carboxylic acid (5-isopropyl-isoxazol-3-ylmethyl)-amide] yielded an inhibition at 10 µM (human CB1 receptor; [1]) of 43% and an inhibition at 10 µM (human CB2 receptor) of 23%.

In the case of `O=C(NCc1cc(C2CC2)no1)c1ccc(OCC(F)(F)F)c(-c2ccc(Cl)cc2)n1` [Example 47, 6-(4-chloro-phenyl)-5-(2,2,2-trifluoro-ethoxy)-pyridine-2-carboxylic acid (3-cyclopropyl-isoxazol-5-ylmethyl)-amide], the inhibition at 10 µM (human CB1 receptor; [1]) was 46% and the inhibition at 10 µM (human CB2 receptor) was 16%.

Work on `Cn1cc(Cl)c(CNC(=O)c2cnc(OCC(F)(F)F)c(-c3ccc(Cl)cc3)c2)n1` [Example 26, N-(4-Chloro-1-methyl-1H-pyrazol-3-ylmethyl)-5-(4-chloro-phenyl)-6-(2,2,2-trifluoro-ethoxy)-nicotinamide] yielded an inhibition at 10 µM (human CB1 receptor; [1]) of 40% and an inhibition at 10 µM (human CB2 receptor) of 22%.

For `COc1cc(CNC(=O)c2cc(-c3ccc(Cl)cc3)c(O[C@@H](C)C(F)(F)F)cn2)on1` [Example 37, (S)-4-(4-chlorophenyl)-N-((3-methoxyisoxazol-5-yl)methyl)-5-(1,1,1-trifluoropropan-2-yloxy)picolinamide], the inhibition at 10 µM (human CB1 receptor; [1]) was 40% and the inhibition at 10 µM (human CB2 receptor) was 20%.

`N#Cc1ccc(-c2cc(C(=O)NCc3nc(C(F)(F)F)no3)cnc2OCC(F)(F)F)cc1` [Example 87, 5-(4-cyanophenyl)-6-(2,2,2-trifluoroethoxy)-N-((3-(trifluoromethyl)-1,2,4-oxadiazol-5-yl)methyl)nicotinamide] gave an inhibition at 10 µM (human CB1 receptor; [1]) of 45% and an inhibition at 10 µM (human CB2 receptor) of 3%.

In the case of `O=C(NCc1nc(C(F)(F)F)no1)c1cnc(OCC(F)(F)F)c(-c2ccc3c(c2)CCC3)c1` [Example 85, 5-(2,3-dihydro-1H-inden-5-yl)-6-(2,2,2-trifluoroethoxy)-N-((3-(trifluoromethyl)-1,2,4-oxadiazol-5-yl)methyl)nicotinamide], the inhibition at 10 µM (human CB1 receptor; [1]) was 7% and the inhibition at 10 µM (human CB2 receptor) was 8%.

For `O=C(NCc1nc(C(F)(F)F)no1)c1ncc(OCC2CC2)c(-c2ccc(Cl)cc2)n1` [Example 21, 4-(4-chloro-phenyl)-5-cyclopropylmethoxy-pyrimidine-2-carboxylic acid (3-trifluoromethyl-[1,2,4]oxadiazol-5-ylmethyl)-amide], the inhibition at 10 µM (human CB1 receptor; [1]) was 44% and the inhibition at 10 µM (human CB2 receptor) was 35%.

`O=C(NCc1cc(C(F)(F)F)on1)c1cnc(OCC2CC2)c(-c2ccc(Cl)cc2)c1` [Example 66, 5-(4-chloro-phenyl)-6-cyclopropylmethoxy-N-(5-trifluoromethyl-isoxazol-3-ylmethyl)-nicotinamide] was tested, and the inhibition at 10 µM (human CB1 receptor; [1]) was 49% and the inhibition at 10 µM (human CB2 receptor) was 18%.

`O=C(NCc1csc(C2CC2)n1)c1ccc(OCC2CC2)c(-c2ccc(Cl)cc2)n1` [Example 57, 6-(4-chloro-phenyl)-5-cyclopropylmethoxy-pyridine-2-carboxylic acid (2-cyclopropyl-thiazol-4-ylmethyl)-amide] was tested, and the inhibition at 10 µM (human CB1 receptor) was 31% and the inhibition at 10 µM (human CB2 receptor) was 36%.

With `CC(C)c1cc(CNC(=O)c2ccc(OCC3CC3)c(-c3ccc(Cl)cc3)n2)no1` [Example 55, 6-(4-chloro-phenyl)-5-cyclopropylmethoxy-pyridine-2-carboxylic acid (5-isopropyl-isoxazol-3-ylmethyl)-amide] the inhibition at 10 µM (human CB1 receptor; [1]) was 44% and the inhibition at 10 µM (human CB2 receptor) was 33%.

`O=C(NCc1cc(C(F)(F)F)no1)c1ncc(OCC2CC2)c(-c2ccc(Cl)cc2)n1` [Example 62, 4-(4-chloro-phenyl)-5-cyclopropylmethoxy-pyrimidine-2-carboxylic acid (3-trifluoromethyl-isoxazol-5-ylmethyl)-amide] was tested, and the inhibition at 10 µM (human CB1 receptor; [1]) was 44% and the inhibition at 10 µM (human CB2 receptor) was 24%.

Molecule `O=C(NCc1nc(C(F)(F)F)no1)c1ncc(OCC(F)(F)F)c(-c2ccc(Cl)cc2)n1` [Example 16, 4-(4-chloro-phenyl)-5-(2,2,2-trifluoro-ethoxy)-pyrimidine-2-carboxylic acid (3-trifluoromethyl-[1,2,4]oxadiazol-5-ylmethyl)-amide] has an inhibition at 10 µM (human CB1 receptor; [1]) of 38% and an inhibition at 10 µM (human CB2 receptor) of 15%.

`O=C(NCc1nc(C(F)(F)F)no1)c1cnc(OCC(F)(F)F)c(-c2ccc(Cl)cc2F)c1` [Example 84, 5-(4-chloro-2-fluorophenyl)-6-(2,2,2-trifluoroethoxy)-N-((3-(trifluoromethyl)-1,2,4-oxadiazol-5-yl)methyl)nicotinamide] was tested, and the inhibition at 10 µM (human CB1 receptor; [1]) was 49% and the inhibition at 10 µM (human CB2 receptor) was 21%.

`CC(C)c1nc(CNC(=O)c2cnc(OCC3CC3)c(-c3ccc(Cl)cc3)c2)no1` [Example 51] showed an inhibition at 10 µM (human CB1 receptor; [1]) of 47% and an inhibition at 10 µM (human CB2 receptor) of 2%.

`O=C(NCc1cc(C2CC2)on1)c1cnc(OCC2CC2)c(-c2ccc(Cl)cc2)c1` [Example 30, 5-(4-chloro-phenyl)-N-(5-cyclopropyl-isoxazol-3-ylmethyl)-6-cyclopropyl-methoxy-nicotinamide] showed an inhibition at 10 µM (human CB1 receptor; [1]) of 48% and an inhibition at 10 µM (human CB2 receptor) of 38%.

`O=C(NCc1cc(C2CC2)no1)c1cc(-c2ccc(Cl)cc2)c(OCC(F)(F)F)nn1` [Example 49, 5-(4-Chloro-phenyl)-6-(2,2,2-trifluoro-ethoxy)-pyridazine-3-carboxylic acid (3-cyclopropyl-isoxazol-5-ylmethyl)-amide] was tested, and the inhibition at 10 µM (human CB1 receptor; [1]) was 36% and the inhibition at 10 µM (human CB2 receptor) was 13%.

`CC(C)c1nc(CNC(=O)c2ccc(OCC3CC3)c(-c3ccc(Cl)cc3)n2)cs1` [Example 52, 6-(4-chloro-phenyl)-5-cyclopropylmethoxy-pyridine-2-carboxylic acid (2-isopropyl-thiazol-4-ylmethyl)-amide] was tested, and the inhibition at 10 µM (human CB1 receptor; [1]) was 38% and the inhibition at 10 µM (human CB2 receptor) was 43%.

`CC(C)(C)c1nc(CNC(=O)c2ccc(OCC3CC3)c(-c3ccc(Cl)cc3)n2)cs1` [Example 63, 6-(4-chloro-phenyl)-5-cyclopropylmethoxy-pyridine-2-carboxylic acid (2-tert-butyl-thiazol-4-ylmethyl)-amide] was tested, and the inhibition at 10 µM (human CB1 receptor; [1]) was 36% and the inhibition at 10 µM (human CB2 receptor) was 38%.

For `O=C(NCc1coc(C2CC2)n1)c1ccc(OCC2CC2)c(-c2ccc(Cl)cc2)n1` [Example 56, 6-(4-chloro-phenyl)-5-cyclopropylmethoxy-pyridine-2-carboxylic acid (2-cyclopropyl-oxazol-4-ylmethyl)-amide], the inhibition at 10 µM (human CB1 receptor; [1]) was 38% and the inhibition at 10 µM (human CB2 receptor) was 32%.

In the case of `O=C(NCc1noc(C2CC2)n1)c1ncc(OCC2CC2)c(-c2ccc(Cl)cc2)n1` [Example 13, 4-(4-chloro-phenyl)-5-cyclopropylmethoxy-pyrimidine-2-carboxylic acid (5-cyclopropyl-[1,2,4]oxadiazol-3-ylmethyl)-amide], the inhibition at 10 µM (human CB1 receptor; [1]) was 35% and the inhibition at 10 µM (human CB2 receptor) was 46%.

`CC(C)(C)c1nc(CNC(=O)c2cc(-c3ccc(Cl)cc3)c(OCC(F)(F)F)nn2)cs1` [Example 65, 5-(4-chloro-phenyl)-6-(2,2,2-trifluoro-ethoxy)-pyridazine-3-carboxylic acid (2-tert-butyl-thiazol-4-ylmethyl)-amide] gave an inhibition at 10 µM (human CB1 receptor; [1]) of 18%.
